For data set [1] the following is noted: literature values (Fioroni, et al.; Lautenschütz, et al.; reported); cited from earlier work.
Data set [2] in a line: Water solubility (extraction into water, TOC and GC-MS-FID). As to conditions: component of B*POME1-6 extracted into water, 1:5 water:B*POME1-6. The class given is physicochemical. Here is the method: The aqueous layer was then analyzed by total organic carbon (TOC) to determine the amount of the fuel product that was extracted into water. […] The concentration of each component was approximated from the FID response to estimate both the total amount of fuel product and relative solubility of individual components. […] Aqueous phases were diluted 1:2 with methanol. An Agilent 8890 GC/FID—5977B MS system was used for analysis. A volume of 1.0 μL was injected into a split/splitless inlet set to 275° C. and a split ratio of 1:100. Compounds were separated using an Rtx-50 column (50% phenyl polydimethylsiloxane, Restek) of dimensions 30 m×0.25 mm×0.25 μm with a helium carrier gas at a flow rate of 1.0 mL/min. A post column splitter was used to divert column effluent simultaneously to FID and MS detectors for qualitative and quantitative analysis. The GC oven temperature was held at 40° C. for 2 minutes, then ramped to 140° C. at 7° C./min, followed by a ramp to 290° C. at 12° C./min and held for 10 minutes. The MS transfer line and FID temperatures were set to 350° C. The MS detector was operated in continuous scan mode from m/z 29 to 300. The FID response was calibrated using a standard of 2,5-dimethylfuran prepared gravimetrically in acetone.

The nature of data set [3]: Flash point (ASTM D7094-17a neat; D6450-16a blends). It counts as physicochemical. As to conditions: measured. How it is done:
(§1) Boiling point range of the target product was determined by a thermogravimetric analysis (TGA) based simulated distillation. Distillation temperatures were not determined via the standard method for diesel fuel, ASTM D86, due to the limited volume of sample available and gas chromatography based simulated distillation was not utilized given the relatively polar nature of POMEs. Analysis was conducted using a CAHN TG-131 TGA under flowing nitrogen with a ramp rate of 50° C./min from 25 to 550° C. The sample size was ca. 250 mg. The distillation parameters were selected to generate curves that closely matched ASTM D86 distillation values. […] Cloud point was measured using a Phase Technology Series 70X according to ASTM D5773; the method uncertainty is typically ±2.5° C. Flash point was measured according to ASTM D7094-17a with a method reproducibility stated as ±5.5° C. Indicated cetane number (ICN) was measured using an Advanced Fuel Ignition Delay Analyzer (AFIDA) instrument according to ASTM D8183-18 and where reproducibility is calculated as ±0.006407(ICN)^1.47. Higher heating value (HHV) and lower heating value (LHV) were determined according to ASTM D240-19 with a method reproducibility of ±0.4 MJ/kg.
(§2) Higher heating value (HHV) and lower heating value (LHV) were determined according to ASTM D240-19 with a method reproducibility of ±0.4 MJ/kg. […] Lubricity was measured using ASTM D6079-18. […]

The nature of data set [4]: Boiling point range (TGA-based simulated distillation). The class given is physicochemical. Particulars: neat. Here is the method: Boiling point range of the target product was determined by a thermogravimetric analysis (TGA) based simulated distillation. Distillation temperatures were not determined via the standard method for diesel fuel, ASTM D86, due to the limited volume of sample available and gas chromatography based simulated distillation was not utilized given the relatively polar nature of POMEs. Analysis was conducted using a CAHN TG-131 TGA under flowing nitrogen with a ramp rate of 50° C./min from 25 to 550° C. The sample size was ca. 250 mg. The distillation parameters were selected to generate curves that closely matched ASTM D86 distillation values. The results of this method were validated using a standard fuel oil designed for validating ASTM D86 (Accustandard). Cloud point was measured using a Phase Technology Series 70X according to ASTM D5773; the method uncertainty is typically ±2.5° C. Flash point was measured according to ASTM D7094-17a with a method reproducibility stated as ±5.5° C. Indicated cetane number (ICN) was measured using an Advanced Fuel Ignition Delay Analyzer (AFIDA) instrument according to ASTM D8183-18 and where reproducibility is calculated as ±0.006407(ICN)^1.47. Higher heating value (HHV) and lower heating value (LHV) were determined according to ASTM D240-19 with a method reproducibility of ±0.4 MJ/kg.

The conditions of data set [5]: literature values (Fioroni, et al.; Lautenschütz, et al.); cited from earlier work.
For data set [6] the following is noted: literature values (Fioroni, et al.; Lautenschütz, et al.); cited from earlier work. This is another data set of the same source.
Data set [7] can be described thus: Lower heating value (ASTM D240-19). It counts as physicochemical. Particulars: neat, measured. Here is the method:
as §1, §2

Read-outs that look alike come from different tables or passages of the source. Marks after values point to notes of the source that are not given here.

`CCO` [ethanol]: in data set [1], the LHV is 26.8 mJ/kg.

For `CCCCOCOCOC` [MB-POME2], the “Aqueous layer concentration of component” value in data set [2] is listed as 2.4 g/L.

As to `COCOCOC` [MM-POME2], in data set [2], the “Aqueous layer concentration of component” value was 0.6 g/L.

On to `CCCCOCOCOCOCOCOC` [MB-POME5], for which the “Aqueous layer concentration of component” value in data set [2] is recorded as 0.1 g/L.

Regarding `CCCCOCOCOCOCOC` [MB-POME4], the “Aqueous layer concentration of component” value in data set [2] is reported as 0.4 g/L.

On to `CCCCOCOCCCC` [BB-POME1, dibutoxymethane], for which the values for the Flash point in data set [3] and in data set [5] were 62 °C and 62^$ °C, respectively. The “Aqueous layer concentration of component” value in data set [2] is reported as 0.2 g/L. For the same compound, the “Boiling point / boiling range” value in data set [4] is 179 °C. The Boiling point in data set [6] was 187^$ °C.

For the compound `CCCCOCOCOCCCC` [BB-POME2], the “Aqueous layer concentration of component” value in data set [2] is 0.1 g/L.

As to `COCOC` [MM-POME1, methylal], in data set [1], the LHV is on record as 23^# MJ/kg.

In the case of `COCOCOCOC` [MM-POME3], in data set [5], the Flash point was 54^# °C. In addition, in data set [6], the Boiling point is 156^# °C.

For `CCCCOCOCOCOC` [MB-POME3], the “Aqueous layer concentration of component” value in data set [2] is on record as 1.1 g/L.

For `COCOCOCOCOCOC` [MM-POME5], the “Aqueous layer concentration of component” value in data set [2] worked out at 1.1 g/L. Further, the LHV in data set [1] is listed as 19^# MJ/kg. Also, the Flash point in data set [5] is 115^# °C. The Boiling point in data set [6] was 242^# °C.

As to `COCOCOCOCOC` [MM-POME4], the “Aqueous layer concentration of component” value in data set [2] is reported as 1.5 g/L. In data set [5], the Flash point was 88^# °C. Moreover, the Boiling point in data set [6] is 202^# °C.

With `CCOCOCOCOCOCC` [EE-POME4], the LHV in data set [1] is on record as 23^# MJ/kg.

As for `COCOCOCOCOCOCOC` [MM-POME6], the “Aqueous layer concentration of component” value in data set [2] is given as 0.5 g/L.

On to `CCOCOCOCC` [EE-POME2], for which, in data set [1], the LHV is given as 26^# MJ/kg.

For `CCOCOCC` [EE-POME1], the LHV in data set [1] was 29^# MJ/kg.

As to `CCOCOCOCOCC` [EE-POME3], the LHV in data set [7] is 24 mJ/kg; in data set [1], 24^# MJ/kg. This compound also gave a Flash point in data set [3] of 68 °C. Also, the “Boiling point / boiling range” value in data set [4] is 185 °C.
